# Reference: patent US20210341448A1, “SCREENING METHOD FOR THERAPEUTIC DRUG OR PROPHYLACTIC DRUG FOR TAUOPATHY AND DIAGNOSTIC METHOD FOR TAUOPATHY” (National Center for Geriatrics and Gerontology, priority 2018, published 2021)
# Assays:
# [1] = tested on: brain slice specimen (hippocampus/entorhinal cortex complex); experiment: Measurement of synapse transmission efficiency (fiber-volley/fEPSP) in brain slice specimens; conditions: aging mouse brain slice exposed to 10 μg/ml for 2 to 3 hours, vs aCSF negative control; p<0.0001
# Description: Brain slice specimens from mice were prepared by the following procedure to evaluate impacts by the tau oligomer on synapse transmission efficiency. 20- to 23-month-old C57BL/6 mice (C57BL/6J or C57BL/6N, male) were cervically dislocated and decapitated to isolate the brain. The obtained brain was thoroughly cooled in aCSF (124 mM of NaCl, 3 mM of KCl, 26 mM of NaHCO3, 1.25 mM of NaH2PO4, 2 mM of CaCl2, 1 mM of MgSO4, 10 mM of D-glucose) bubbled with a 95% O2/5% CO2 mixed gas, then dissected at the center of the cerebrum along the coronal plane, and further the dissected posterior site of the brain was sliced along the horizontal cross sections to a thickness of 350 μm using a vibratome (Leica, VT-1200S). […]
# The brain slice specimen was moved to a measurement chamber through which aCSF was perfused, and electric pulse stimulation of 1.5, 2, 3, or 4 nA was applied to record induced potential changes for the measurement of synapse strength from […]. […] The recorded waveform was analyzed using a self-made analysis software to calculate an amplitude of fiber-volley and an amplitude of excitatory postsynaptic potential (fEPSP) at each electric pulse stimulation.
# [2] = tested on: postsynaptic NMDAR and AMPAR; experiment: Western blot of NMDA and AMPA receptor amounts on the synapse, brain slices of aging C57BL/6 mice; set-up: species or system mouse; conditions: aging C57BL/6 brain slice, 0.5% Triton X-100-insoluble membrane fraction
# Description: As the molecule mechanism of NMDAR-LTD, it has been known that the AMPA receptors (hereinafter described as “AMPAR”) and/or the NMDA receptors (NMDAR) are incorporated into a cell by the endocytosis in the postsynaptic membrane caused by the activation of the NMDA receptors. Thus, an analysis was performed on the changes in amount of NMDARs and AMPARs on synapses in the brain slice specimens exposed to the tau oligomer sample and the brain slice specimens not exposed to the tau oligomer sample, prepared by the procedures of the above (2-1) and (2-2).
# The brain slice specimens were frozen and disrupted in a 50-fold volume of homogenizing buffer (4 mM of HEPES, 2 mM of EGTA, 0.32 M of sucrose, pH 7.4) using a Teflon® homogenizer. The disrupted tissue solution was centrifuged at 4° C., 1,000×g for 15 minutes to thereby collect the supernatant, and the supernatant was further centrifuged at 4° C., 12,000×g for 15 minutes to thereby collect membrane fractions (pellets). The obtained membrane fractions were dissolved in tris-buffered saline containing 0.5% Triton X-100 (50 mM of Tris, 500 mM of NaCl, pH 7.4) and were centrifuged at 4° C., 20,000×g for 15 minutes. […] The western blot was carried out on the 0.5% Triton X-100-insoluble membrane fraction sample to quantify the AMPA receptor (GluA2 subunit) and the NMDA receptors (NR2a and NR2b subunits). […]
# [3] = tested on: postsynaptic NMDAR and AMPAR; experiment: Western blot of NMDA and AMPA receptor amounts on the synapse, brain slices of tau knockout mice; conditions: tau knockout mouse brain slice
# Description: The brain slice specimens were frozen and disrupted in a 50-fold volume of homogenizing buffer (4 mM of HEPES, 2 mM of EGTA, 0.32 M of sucrose, pH 7.4) using a Teflon® homogenizer. The disrupted tissue solution was centrifuged at 4° C., 1,000×g for 15 minutes to thereby collect the supernatant, and the supernatant was further centrifuged at 4° C., 12,000×g for 15 minutes to thereby collect membrane fractions (pellets). The obtained membrane fractions were dissolved in tris-buffered saline containing 0.5% Triton X-100 (50 mM of Tris, 500 mM of NaCl, pH 7.4) and were centrifuged at 4° C., 20,000×g for 15 minutes. The supernatant was used as a 0.5% Triton X-100-soluble membrane fraction sample and the pellet was used as a 0.5% Triton X-100-insoluble membrane fraction sample. The western blot was carried out on the 0.5% Triton X-100-insoluble membrane fraction sample to quantify the AMPA receptor (GluA2 subunit) and the NMDA receptors (NR2a and NR2b subunits). The antibodies used were an anti-Glu2 antibody (Alomone Labs, #AGC-073) (1:1000 dilution), an anti-NR2A antibody (Alomone Labs, #AGC-002) (1:1000 dilution), and an anti-NR2B antibody (Alomone Labs, #AGC-003) (1:1000 dilution).
# In the tau knockout mice, the reduction of NMDARs and AMPARs on the synapse by the exposure of the tau oligomer sample was not observed.
# NT2-N cells = experiment: Adhesion activity of tau oligomers to NT2-N cell surface (fluorescence microscopy); assay type: cell-based, human; conditions: on ice 30 minutes, no membrane permeabilization
# Description: Cal-520 AM was loaded to the NT2-N cells prepared in the above (4-1) by the procedure of the above (4-2), exposed to the tau oligomer sample (10 μl/ml) prepared in the above (1-3) and incubated on ice for 30 minutes. Subsequently, the cells were washed 3 times with DPBS(−) (137 mM of NaCl, 2.68 mM of KCl, 1.47 mM of KH2PO4, 8.06 mM of Na2HPO4) and fixed with 4% paraformaldehyde at room temperature for 15 minutes. After thorough washing with DPBS(−) (10 minutes×3 times), blocking was done with 1% BSA and 3% donkey serum/DPBS for 30 minutes. Then, the anti-phosphorylated tau antibody (anti-pTau (paired pS409, pS412, pS413), AnaSpec, #AS-55416) (1:1500 dilution) as the primary antibody was reacted at room temperature for 1 hour, and Alexa594-labelled anti-mouse IgG (Jackson Immuno Research, #711-585-152) (1:1500 dilution) as a secondary antibody was reacted at room temperature for 30 minutes, to thereby carry out immunostaining. The stained cells were observed using a fluorescence microscope (BZ-X710, Keyence Corporation).
# The HT-tau oligomer sample prepared in the above (1-4), instead of the tau oligomer sample prepared in the above (1-3), was exposed to the NT2-N cells by the same procedure as in the above (5-1). After thorough washing, fluorescence microscopic observation was carried out.
substance,measurement,setting,value
"tau oligomer: polymer of human tau 2N4R monomers, polymerized with mouse brain extract and ATP, collected as pellets",synapse transmission efficiency (fiber-volley/fEPSP ratio),[1],significantly reduced
same,amount of AMPARs on the postsynaptic site,"[2]; GluA2, normalized to aCSF",reduced
same,amount of NMDARs on the postsynaptic site,"[2]; NR2a and NR2b, normalized to aCSF",reduced
same,reduction of AMPARs on the synapse,[3],not observed
same,reduction of NMDARs on the synapse,[3],not observed
same,adhesion to the cell surface,NT2-N cells,adhered in a patchy pattern
